Results published in ChEMBL document CHEMBL1201862, “PubChem BioAssay data set” (2004).
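Compound exposure: 48 hours, 5 concentrations, 96-well plates. Abbreviation: GI50, concentration required for 50% inhibition of growth.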 Active and inactive are the calls of the source. Rule as the data show it: active = GI50 up to about 1.1 µM and inactive = higher.

Experiments:
Assay in all cases: NCI anticancer screen, dose series, 48 h
786-0 = tested on: 786-0
A498 = tested on: A498
A549 = tested on: A549
ACHN = tested on: ACHN
CAKI-1 = tested on: CAKI-1
CCRF-CEM = tested on: CCRF-CEM
COLO 205 = tested on: COLO 205
DLD-1 = tested on: DLD-1
DMS-114 = tested on: DMS-114
DMS-273 = tested on: DMS-273
EKVX = tested on: EKVX
HCC 2998 = tested on: HCC 2998
HCT-15 = tested on: HCT-15
HL-60 = tested on: HL-60
HOP-62 = tested on: HOP-62
HOP-92 = tested on: HOP-92
HT-29 = tested on: HT-29
IGROV-1 = tested on: IGROV-1
K562 = tested on: K562
KM-20L2 = tested on: KM-20L2
KM12 = tested on: KM12
LOX IMVI = tested on: LOX IMVI
LXFL 529 = tested on: LXFL 529
M14 = tested on: M14
M19-MEL = tested on: M19-MEL
MOLT-4 = tested on: MOLT-4
Malme-3M = tested on: Malme-3M
NCI-H23 = tested on: NCI-H23
NCI-H460 = tested on: NCI-H460
NCI-H522 = tested on: NCI-H522
OVCAR-3 = tested on: OVCAR-3
OVCAR-4 = tested on: OVCAR-4
OVCAR-5 = tested on: OVCAR-5
OVCAR-8 = tested on: OVCAR-8
RPMI-8226 = tested on: RPMI-8226
RXF 393 = tested on: RXF 393
RXF 631 = tested on: RXF 631
SF-268 = tested on: SF-268
SF-295 = tested on: SF-295
SF-539 = tested on: SF-539
SK-MEL-28 = tested on: SK-MEL-28
SK-MEL-2 = tested on: SK-MEL-2
SK-MEL-5 = tested on: SK-MEL-5
SK-OV-3 = tested on: SK-OV-3
SN12C = tested on: SN12C
SNB-19 = tested on: SNB-19
SNB-75 = tested on: SNB-75
SNB-78 = tested on: SNB-78
SW-620 = tested on: SW-620
TK-10 = tested on: TK-10
U-251 = tested on: U-251
UACC-257 = tested on: UACC-257
UACC-62 = tested on: UACC-62
UO-31 = tested on: UO-31
XF498 = tested on: XF498
HCT-116 = tested on: HCT-116

Measured: GI50

CC1(Br)C(=O)NC(=O)N(C2CC(N=[N+]=[N-])C(CO)O2)C1N=[N+]=[N-] (configuration not stated)
> 100 µM: HCT-15
inactive: 786-0 > 100 µM | A498 > 100 µM | A549 > 100 µM | ACHN > 100 µM | CAKI-1 70.8 µM | CCRF-CEM 53.1 µM | COLO 205 > 100 µM | DLD-1 > 100 µM | DMS-114 > 100 µM | DMS-273 > 100 µM | EKVX > 100 µM | HCC 2998 > 100 µM | HL-60 > 100 µM | HOP-62 > 100 µM | HOP-92 > 100 µM | HT-29 > 100 µM | IGROV-1 > 100 µM | K562 > 100 µM | KM-20L2 > 100 µM | KM12 > 100 µM | LOX IMVI > 100 µM | LXFL 529 > 100 µM | M14 > 100 µM | M19-MEL > 100 µM | MOLT-4 > 100 µM | Malme-3M 97.9 µM | NCI-H23 > 100 µM | NCI-H460 > 100 µM | NCI-H522 23.1 µM | OVCAR-3 > 100 µM | OVCAR-4 > 100 µM | OVCAR-5 > 100 µM | OVCAR-8 > 100 µM | RPMI-8226 92.5 µM | RXF 393 91.8 µM | RXF 631 > 100 µM | SF-268 > 100 µM | SF-295 > 100 µM | SF-539 > 100 µM | SK-MEL-28 > 100 µM | SK-MEL-2 > 100 µM | SK-MEL-5 > 100 µM | SK-OV-3 > 100 µM | SN12C > 100 µM | SNB-19 > 100 µM | SNB-75 > 100 µM | SNB-78 > 100 µM | SW-620 > 100 µM | TK-10 > 100 µM | U-251 > 100 µM | UACC-257 > 100 µM | UACC-62 > 100 µM | UO-31 > 100 µM | XF498 > 100 µM

O=C1NC(=O)C(C(=O)C(=O)Nc2ccc(Cl)cc2Cl)C(=O)N1
inactive: 786-0 > 100 µM | A498 > 100 µM | A549 > 100 µM | ACHN > 100 µM | CAKI-1 > 100 µM | CCRF-CEM > 100 µM | COLO 205 > 100 µM | DLD-1 > 100 µM | DMS-114 > 100 µM | EKVX > 100 µM | HCC 2998 > 100 µM | HCT-116 > 100 µM | HL-60 > 100 µM | HOP-62 > 100 µM | HOP-92 36.8 µM | IGROV-1 > 100 µM | K562 > 100 µM | KM-20L2 > 100 µM | KM12 93.1 µM | LXFL 529 > 100 µM | M14 > 100 µM | M19-MEL > 100 µM | MOLT-4 > 100 µM | Malme-3M > 100 µM | NCI-H460 > 100 µM | OVCAR-3 > 100 µM | OVCAR-4 > 100 µM | OVCAR-5 > 100 µM | OVCAR-8 > 100 µM | RPMI-8226 > 100 µM | RXF 631 > 100 µM | SF-295 > 100 µM | SF-539 > 10 µM | SK-MEL-2 > 100 µM | SK-MEL-5 > 100 µM | SK-OV-3 > 100 µM | SNB-19 > 100 µM | SNB-78 > 100 µM | SW-620 > 100 µM | TK-10 > 100 µM | U-251 > 100 µM | UACC-257 > 100 µM | UACC-62 > 100 µM | UO-31 > 100 µM
> 100 µM: HCT-15

O=C(O)C12CCCC(CCC1)C2
> 100 µM: HCT-15
inactive: A498 > 100 µM | A549 > 100 µM | ACHN > 100 µM | CAKI-1 > 100 µM | CCRF-CEM > 100 µM | COLO 205 > 100 µM | DLD-1 > 100 µM | DMS-114 > 100 µM | DMS-273 > 100 µM | EKVX > 100 µM | HCT-116 > 100 µM | HL-60 > 100 µM | HOP-62 > 100 µM | HOP-92 > 100 µM | HT-29 > 100 µM | IGROV-1 > 100 µM | K562 > 100 µM | KM12 > 100 µM | LOX IMVI > 100 µM | LXFL 529 > 100 µM | M14 > 100 µM | MOLT-4 > 100 µM | Malme-3M > 100 µM | NCI-H23 > 100 µM | NCI-H460 > 100 µM | NCI-H522 > 100 µM | OVCAR-3 > 100 µM | OVCAR-4 > 100 µM | OVCAR-5 > 100 µM | OVCAR-8 > 100 µM | RPMI-8226 > 100 µM | RXF 393 > 100 µM | RXF 631 > 100 µM | SF-268 > 100 µM | SF-295 > 100 µM | SF-539 > 100 µM | SK-MEL-28 > 100 µM | SK-MEL-2 > 100 µM | SK-MEL-5 > 100 µM | SK-OV-3 > 100 µM | SN12C > 100 µM | SNB-19 > 100 µM | SNB-75 > 100 µM | SNB-78 > 100 µM | SW-620 > 100 µM | TK-10 > 100 µM | U-251 > 100 µM | UACC-257 > 100 µM | UACC-62 > 100 µM | UO-31 > 100 µM | XF498 > 100 µM
